# Measurements: patent US20040023299A1, “Diagnosis of liver disease” (priority 2000, published 2004)
# Where two headings read alike, the source gives them in different places.
# Conditions: rats
# Protocol: Chronic liver disease was established by exposing the animals of the 3 experimental groups to weekly intra-gastric administration of CCl4. A starting dose of 80 μl was used and increased weekly, based on the weight of the animals. Nothing was administered to the control group. All the animals were weighed on day one and the experimental groups started with their 80 μl CCl4. After three days the animals were again weighed to determine the dose for the second week. That was the procedure for the administration of the CC4 l during the entire experiment. On day three of week five, the scanning of group 1 started. Anaesthesia in each case was induced with an intraperitoneal injection of sodium pentobarbitone 6% solution (Sagatal, Kryon Laboratories Pty Ltd., Benrose, Gauteng, S. A). […] After the completion of the acquisition, the rats were terminated by an intravenous overdose of sodium pentobarbitone. The livers were taken out, stored in a 10% formalin solution until the next day and then processed and stained with Haematoxylin and Eosin, Reticulin and Cyrus red.
# Liver sections of the rats were stained with H&E, Masson Trichrome and Reticulin stains. The amount of necrosis and fibrosis were interpreted by an experienced hepatopathologist and scored according to a classification system whereby 1 was mild necrosis or fibrosis and 4 severe.
# [1] = weekly intra-gastric CCl4, after 5 weeks
# [2] = weekly intra-gastric CCl4, after 7 weeks
# [3] = weekly intra-gastric CCl4, after 9 weeks
smiles,measurement,setting,value
ClC(Cl)(Cl)Cl [CCl4],"average score for fibrosis (1 mild, 4 severe)",[1],1.9
same,"average score for necrosis (1 mild, 4 severe)",[1],1.9
same,"average score for fibrosis (1 mild, 4 severe)",[2],1.9
same,"average score for necrosis (1 mild, 4 severe)",[2],1.7
same,"average score for fibrosis (1 mild, 4 severe)",[3],2.1
same,"average score for necrosis (1 mild, 4 severe)",[3],1.4
